What is called IC50 is the concentration needed to halve the response being measured. A lower IC50 goes with greater potency in that assay. The term ED50 denotes the midpoint of the dose-response relation. A low value points to greater potency.

Data set [1] deals with T1, human neutrophil elastase (Homo sapiens, UniProt P08246).
T1 construct: purchased Elastine Product Co., Inc
T1 sequence (P08246 30-267): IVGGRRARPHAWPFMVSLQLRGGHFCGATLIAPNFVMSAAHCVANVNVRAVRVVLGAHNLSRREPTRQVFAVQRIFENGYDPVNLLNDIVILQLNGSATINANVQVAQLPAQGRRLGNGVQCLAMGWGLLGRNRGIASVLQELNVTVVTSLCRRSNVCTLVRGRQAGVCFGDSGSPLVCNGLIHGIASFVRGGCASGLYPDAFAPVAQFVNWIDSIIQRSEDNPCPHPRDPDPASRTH
The experiment in a line: Inhibitory activity on human neutrophil elastase (HNE) in vitro. The format is biochemical. The conditions noted are these: human neutrophil elastase 0.2 U/ml, substrate MeO-Suc-Ala-Ala-Pro-Val-pNA 0.5 mM, 37° C., pH 7.5. Here is the method: Experiment 1: Inhibitory Activity on Human Neutrophil Elastase (HNE)
The inhibitory activity of the compound of the present invention in vitro on human neutrophil elastase was examined by this experiment.
To 100 mM of HEPES {[N-(2-hydroxyethyl)piperazine-N′-(2-ethanesulfonic acid)], pH 7.5}buffer solution containing 1M NaCl and 0.001% Brij-35 (polyoxyethylene lauryl ether) were added human neutrophil elastase (final concentration: 0.2 U/ml, Elastine Product Co., Inc.) and the compound of the present invention (dissolved in 10% dimethyl sulfoxide; final concentration: 10^−10˜3×10^−3 M). The mixture was pre-incubated for 3 minutes at 37° C. Thereto was added MeO-Suc-Ala-Ala-Pro-Val-pNA (methoxysuccinyl-alanyl-alanyl-prolyl-valyl-p-nitroanilide (Sigma Chemical Co.)) as a substrate to give the final concentration of 0.5 mM, and the reaction was initiated. Under this condition, the producing rate of the reaction product, p-nitroanilide (pNA) at 37° C. was estimated by measuring the absorbance at 404 nm for 3 minutes.
The inhibitory activity of the compound of the present invention against human neutrophil elastase (HNE) is calculated according to the following formula.
The concentration of the compound of the present invention to be required to achieve 50% HNE inhibition (i.e., IC50) was calculated based on the concentration-inhibitory rate curve of the compound of the present invention.
As a comparative compound, N-[(1S)-2-((2S)-2-{N-[(1S)-3,3,3-trifluoro-1-(methylethyl)-2-oxopropyl]carbamoyl}pyrrolidinyl)-1-(methylethyl)-2-oxoethyl](imidazol-4-yl)carboxamide was used, and the same assay was carried out. The planar structure of this compound was the same as one of compound (22) disclosed in J. Med. Chem., 1997, 40, 1876–1885.

For data set [2], the system named is pulmonary hemorrhage induced by human neutrophil elastase (HNE). The experiment in a line: Inhibitory activity on pulmonary hemorrhage induced by human neutrophil elastase (HNE). The format is in vivo. The conditions noted are these: hamster; for ED50: Homo sapiens, Neutrophil, po; for Pulmonary hemorrhage inhibitory rate (%): dose 3 mg/kg orally, 30 minutes prior to HNE. The text has this: Experiment 3: Inhibitory Activity on Pulmonary Hemorrhage Induced by Human Neutrophil Elastase (HNE)
This experiment tested on in vivo efficacy of the compound of the present invention. When human neutrophil elastase is intratracheally administered to a hamster, the pulmonary hemorrhage is induced. A definite time later after administration of the elastase, in the bronchoalveolar lavage fluid by washing lung via trachea, hemoglobin is detected.
Hamsters (Syrian strain, 7–10 weeks old male) were divided into groups consisting of 3 to 6, and each group was treated as follows:
(A) A Group to which the Compound of the Present Invention was not Administered (Disease Control):
Physiological saline solution (0.2 ml) in which 25 unit of human neutrophil elastase (Elastin Product Co., Inc.) was dissolved was intratracheally administered to a hamster to induce the pulmonary hemorrhage. One hour later after administration of elastase, the hamsters were sacrificed by exsanquination, and alveoli were transtracheally washed twice with physiological saline (2.5 ml), and the hemoglobin concentration in the bronchoalveolar lavage fluid (5 ml) was determined by measuring the absorbance at 414 nm.
(B) A Group to which the Compound of the Present Invention was Administered:
A fixed amount of the compound of the present invention was dissolved in dimethyl sulfoxide (DMSO), and thereto was added 0.5% tragacanth gum to prepare a suspension. The suspension was orally administered to a hamster, 30 minutes prior to the administration of human neutrophil elastase (HNE) (final concentration of DMSO, 1%), and then, human neutrophil elastase was administered in the same manner as the above method (A). After 1 hour, the concentration of hemoglobin in the bronchoalveolar lavage fluid was determined in the same manner as the above method (A).
The hemorrhage inhibition activity of the compound of the present invention is represented as the hemorrhage inhibiting rate in the following formula.
The dose of the compound of the present invention to be required to achieve 50% inhibition of pulmonary hemorrhage (i.e., ED50) was calculated based on the administration dose-hemorrhage inhibiting rate curve.
As a comparative example, the same experiment was also carried out on a comparative compound used in Experiment 1.
Some of the compounds of the present invention were compared with the comparative compound on the hemorrhage inhibitory rate at the dose of 3 mg/kg.

The target in data set [3] is T2, porcine pancreas elastase (Sus scrofa, UniProt P00772).
T2 construct: purchased Elastin Products Co., Inc
T2 sequence (P00772 27-266): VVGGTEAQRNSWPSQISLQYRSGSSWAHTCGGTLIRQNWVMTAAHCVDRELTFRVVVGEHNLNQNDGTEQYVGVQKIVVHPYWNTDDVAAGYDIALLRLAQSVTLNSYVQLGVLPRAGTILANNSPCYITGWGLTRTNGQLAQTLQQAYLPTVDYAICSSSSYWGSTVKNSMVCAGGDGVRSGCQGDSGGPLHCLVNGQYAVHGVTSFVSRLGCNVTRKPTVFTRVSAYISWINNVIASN
The experiment in a line: Inhibitory activity against porcine pancreas elastase. The format is biochemical. The conditions noted are these: porcine pancreas elastase 40 ng/ml, substrate Suc-Ala-Ala-Ala-pNA 2.5 mM. On the procedure:
Experiment 2: Inhibitory Activity Against Porcine Pancreas Elastase
The inhibitory activity was measured in the same manner as experiment 1, except for using porcine pancreas elastase (Elastin Products Co., Inc., final concentration 40 ng/ml) as a target enzyme and Suc-Ala-Ala-Ala-pNA (succinyl-alanyl-alanyl-alanyl-p-nitroanilide, Peptide Research, final concentration 2.5 mM) as a substrate.

Data set [4] has as its system ICR mice. Description: Acute toxicity. The following applies: male ICR mice (5 mice), 300 mg/kg orally, after 24 hours. The format is in vivo. On the procedure: Experiment 5: Acute Toxicity
The compound of the present invention (each compound of Example 10, Example 11, Example 15, Example 25, and Example 40) was suspended in 0.5% tragacanth gum and the suspension was orally administered to 7 weeks old, male ICR mice (5 mice) at 300 mg/kg.

Setting [5] is: orally administered 30 minutes prior to intratracheal HNE, hemoglobin in bronchoalveolar lavage fluid after 1 hour.

Some results are limits rather than exact numbers.

In the case of `Cc1nnsc1C(=O)N[C@H](C(=O)N1CCC[C@H]1C(=O)N[C@H](C(=O)C(F)(F)F)C(C)C)C(C)C` [Example 3, N-[(1S)-2-((2S)-2-{N-[(1S)-3,3,3-trifluoro-1-(methylethyl)-2-oxopropyl]carbamoyl}pyrrolidinyl)-1-(methylethyl)-2-oxoethyl]-(4-methyl-1,2,3-thiadiazol-5-yl)carboxamide], the values for the IC50 in data set [1] and in data set [3] were 0.013 µM and 0.155 µM, respectively. In data set [2] (setting [5]), the ED50 was determined as 1.6 mg/kg.

In data set [1], `COc1ccc(-n2ncc(C(=O)N[C@H](C(=O)N3CCC[C@H]3C(=O)N[C@H](C(=O)C(F)(F)F)C(C)C)C(C)C)c2C)cc1` [Example 40, N-[(1S)-2-((2S)-2-{N-[(1S)-3,3,3-trifluoro-1-(methylethyl)-2-oxopropyl]carbamoyl}pyrrolidinyl)-1-(methylethyl)-2-oxoethyl]-[5-methyl-1-(4-methoxyphenyl)pyrazol-4-yl]carboxamide] gave an IC50 of 0.0084 µM. Also, the “Pulmonary hemorrhage inhibitory rate (%)” value in data set [2] is on record as 70%. Also, the “Acute toxicity: death or not” value in data set [4] is recorded as “all were alive”.

In data set [1], `Cc1cc(C(=O)N[C@H](C(=O)N2CCC[C@H]2C(=O)N[C@H](C(=O)C(F)(F)F)C(C)C)C(C)C)no1` [Example 15, N-[(1S)-2-((2S)-2-{N-[(1S)-3,3,3-trifluoro-1-(methylethyl)-2-oxopropyl]carbamoyl}pyrrolidinyl)-1-(methylethyl)-2-oxoethyl]-(5-methylisoxazol-3-yl)carboxamide] came in with a half-inhibitory concentration (IC50) of 0.024 µM. For the same compound, the ED50 in data set [2] (setting [5]) was found to be 0.62 mg/kg. Further, the “Acute toxicity: death or not” value in data set [4] is on record as “all were alive”.

`COc1cc(C(=O)N[C@H](C(=O)N2CCC[C@H]2C(=O)N[C@H](C(=O)C(F)(F)F)C(C)C)C(C)C)on1` [Example 11, N-[(1S)-2-((2S)-2-{N-[(1S)-3,3,3-trifluoro-1-(methylethyl)-2-oxopropyl]carbamoyl}pyrrolidinyl)-1-(methylethyl)-2-oxoethyl]-(3-methoxyisoxazol-5-yl)carboxamide] registered a half-maximal inhibitory concentration (IC50) in data set [1] of 0.027 µM. Besides, in data set [2] (setting [5]), it took a dose of 1.5 mg/kg to reach the 50% effect level (ED50). Besides, in data set [4], the “Acute toxicity: death or not” value is given as “all were alive”.

The compound `CC(C)[C@H](NC(=O)c1c[nH]cn1)C(=O)N1CCC[C@H]1C(=O)N[C@H](C(=O)C(F)(F)F)C(C)C` [Comparative compound, N-[(1S)-2-((2S)-2-{N-[(1S)-3,3,3-trifluoro-1-(methylethyl)-2-oxopropyl]carbamoyl}pyrrolidinyl)-1-(methylethyl)-2-oxoethyl](imidazol-4-yl)carboxamide, reference compound] returned a 50% inhibitory concentration (IC50) in data set [1] of 0.078 µM. For the same compound, in data set [2], the “Pulmonary hemorrhage inhibitory rate (%)” value was 18%. For the same compound, in data set [2] (setting [5]), the “Inhibitory activity on pulmonary hemorrhage ED50” value is on record as more than 10 mg/kg.

Compound `Cc1c(C(=O)N[C@H](C(=O)N2CCC[C@H]2C(=O)N[C@H](C(=O)C(F)(F)F)C(C)C)C(C)C)cnn1-c1ccccc1` [Example 10, N-[(1S)-2-((2S)-2-{N-[(1S)-3,3,3-trifluoro-1-(methylethyl)-2-oxopropyl]carbamoyl}pyrrolidinyl)-1-(methylethyl)-2-oxoethyl]-(5-methyl-1-phenylpyrazol-4-yl)carboxamide] yielded a half-inhibitory concentration (IC50) in data set [1] of 0.01 µM. In addition, it took a dose of 1.1 mg/kg to reach the 50% effect level in data set [2] (setting [5]) (ED50). Moreover, the “Acute toxicity: death or not” value in data set [4] is “all were alive”.

Compound `CC(C)Oc1cc(C(=O)N[C@H](C(=O)N2CCC[C@H]2C(=O)N[C@H](C(=O)C(F)(F)F)C(C)C)C(C)C)on1` [Example 12, N-[(1S)-2-((2S)-2-{N-[(1S)-3,3,3-trifluoro-1-(methylethyl)-2-oxopropyl]carbamoyl}pyrrolidinyl)-1-(methylethyl)-2-oxoethyl]-[3-(methylethoxy)isoxazol-5-yl]carboxamide] came in with a half-maximal inhibitory concentration (IC50) in data set [1] of 0.016 µM. Also, the “Pulmonary hemorrhage inhibitory rate (%)” value in data set [2] worked out at 66%.

In data set [1], `Cc1cc2onc(C(=O)N[C@H](C(=O)N3CCC[C@H]3C(=O)N[C@H](C(=O)C(F)(F)F)C(C)C)C(C)C)c2cc1C` [Example 17, N-[(1S)-2-((2S)-2-{N-[(1S)-3,3,3-trifluoro-1-(methylethyl)-2-oxopropyl]carbamoyl}pyrrolidinyl)-1-(methylethyl)-2-oxoethyl]-(5,6-dimethylbenzo[d]isoxazol-3-yl)carboxamide] registered a concentration for half-maximal inhibition (IC50) of 0.011 µM. Also, the “Pulmonary hemorrhage inhibitory rate (%)” value in data set [2] was found to be 59%.

Take `Cc1c(C(=O)N[C@H](C(=O)N2CCC[C@H]2C(=O)N[C@H](C(=O)C(F)(F)F)C(C)C)C(C)C)cnn1-c1ccccc1F` [Example 45]: the 50% inhibitory concentration (IC50) in data set [1] amounted to 0.0084 µM. Moreover, the “Pulmonary hemorrhage inhibitory rate (%)” value in data set [2] was determined as 58%.

On to `Cc1c(C(=O)N[C@H](C(=O)N2CCC[C@H]2C(=O)N[C@H](C(=O)C(F)(F)F)C(C)C)C(C)C)cnn1-c1ccc(Cl)cc1` [Example 38, N-[(1S)-2-((2S)-2-{N-[(1S)-3,3,3-trifluoro-1-(methylethyl)-2-oxopropyl]carbamoyl}pyrrolidinyl)-1-(methylethyl)-2-oxoethyl]-[1-(4-chlorophenyl)-5-methylpyrazol-4-yl]carboxamide], for which the IC50 in data set [1] amounted to 0.0083 µM. Also, the “Pulmonary hemorrhage inhibitory rate (%)” value in data set [2] was found to be 63%.

`Cc1c(C(=O)N[C@H](C(=O)N2CCC[C@H]2C(=O)N[C@H](C(=O)C(F)(F)F)C(C)C)C(C)C)cnn1-c1ccc(C(F)(F)F)cc1` [Example 47, N-[(1S)-2-((2S)-2-{N-[(1S)-3,3,3-trifluoro-1-(methylethyl)-2-oxopropyl]carbamoyl}pyrrolidinyl)-1-(methylethyl)-2-oxoethyl]-{5-methyl-1-[4-(trifluoromethyl)phenyl]pyrazol-4-yl}carboxamide] gave an IC50 in data set [1] of 0.015 µM. For the same compound, the “Pulmonary hemorrhage inhibitory rate (%)” value in data set [2] was found to be 60%.

With `CC(C)[C@H](NC(=O)c1cc(C(C)(C)C)n(C)n1)C(=O)N1CCC[C@H]1C(=O)N[C@H](C(=O)C(F)(F)F)C(C)C` [Example 25, N-[(1S)-2-((2S)-2-{N-[(1S)-3,3,3-trifluoro-1-(methylethyl)-2-oxopropyl]carbamoyl}pyrrolidinyl)-1-(methylethyl)-2-oxoethyl]-(5-tert-butyl-1-methylpyrazol-3-yl)carboxamide], the “Acute toxicity: death or not” value in data set [4] is listed as “all were alive”.

The record behind these values is patent US7067491B2, “Heterocyclic compounds having elastase-inhibiting activity and intermediates thereof” (Dainippon Pharmaceutical Co., Ltd., priority 2002, dated 2006).
